Reference: patent publication US20240189344A1, “METHODS USING CARBON DIOXIDE AND OXYGEN TO IMPROVE CHARACTERISTICS OF POULTRY” (priority 2022, published 2024)

Experiments:
[1] = tested on: Ross 708 chickens; test: Livability: percentage of hatched birds surviving to 28 days after CO2 incubation; type: in vivo, chicken; details: for percentage of birds that survived compared to control: 28 days
Description: 900 fertilized eggs from a commonly used commercial chicken strain, Ross 708, that were less than 1 week old since being laid, and laid in the same laying facility by layers (chickens) of the same age, were split equally into three batches of 300 each. One batch, referred to as control batch, was incubated for 18 days in an atmosphere in which no additional CO2 was injected into this atmosphere from any source outside the egg. For this batch, the CO2 concentration inside the incubator varied between the CO2 concentration of the ambient atmosphere (i.e. about 409 ppm) and as high as 1,500 ppm (resulting from CO2 generation by the eggs themselves). The second batch, referred to as 4,000 ppm test CO2 batch or 0.4% CO2 test batch, was incubated for 18 days wherein the CO2 concentration in the incubator from the start of the first day through the end of the eighteenth day was maintained at 4,000 ppm (i.e. 0.4% CO2) by occasional injections of CO2 as necessary. The third batch, referred to as 10,000 ppm test CO2 batch or 1% CO2 test batch, was incubated for 18 days according to Regimen 1 described herein, wherein the CO2 concentration in the incubator from the start of the first day through the end of the eighteenth day was maintained at 10,000 ppm (i.e. 1% CO2) by occasional injections of CO2 as necessary. All three batches were incubated at approximately 100° F. and between 30% and 70% relative humidity. At the end of the eighteenth day of incubation, all three batches of eggs were transferred to hatcher equipment, where the eggs hatched over the next 3 days. […]
Once the chicks hatched, approximately 150 of the male chicks from each batch were taken to grow cages and they began to be fed water and feed. […] Then the birds were measured for Woody Breast scores by manual palpitation by a trained panel of experts under single-blinded conditions. […] Score 0 means no WB was detected. Score 3 meant very high levels of WB detected and scores 1 and 2 meant intermediate levels of WB were detected. […]

[2] = Average bird weight at hatch and at 28 days after CO2 incubation; type: in vivo, chicken
Description: (§1) 900 fertilized eggs from a commonly used commercial chicken strain, Ross 708, that were less than 1 week old since being laid, and laid in the same laying facility by layers (chickens) of the same age, were split equally into three batches of 300 each. One batch, referred to as control batch, was incubated for 18 days in an atmosphere in which no additional CO2 was injected into this atmosphere from any source outside the egg. For this batch, the CO2 concentration inside the incubator varied between the CO2 concentration of the ambient atmosphere (i.e. about 409 ppm) and as high as 1,500 ppm (resulting from CO2 generation by the eggs themselves). The second batch, referred to as 4,000 ppm test CO2 batch or 0.4% CO2 test batch, was incubated for 18 days wherein the CO2 concentration in the incubator from the start of the first day through the end of the eighteenth day was maintained at 4,000 ppm (i.e. 0.4% CO2) by occasional injections of CO2 as necessary. The third batch, referred to as 10,000 ppm test CO2 batch or 1% CO2 test batch, was incubated for 18 days according to Regimen 1 described herein, wherein the CO2 concentration in the incubator from the start of the first day through the end of the eighteenth day was maintained at 10,000 ppm (i.e. 1% CO2) by occasional injections of CO2 as necessary. All three batches were incubated at approximately 100° F. and between 30% and 70% relative humidity. At the end of the eighteenth day of incubation, all three batches of eggs were transferred to hatcher equipment, where the eggs hatched over the next 3 days. No external CO2 was injected into the hatcher from any source outside the eggs for this period of 3 days. Thus, the only difference between the conditions under which the three batches were incubated was that in the control batch no additional CO2 was injected, whereas for the other two batches additional, external CO2 was injected to subject the eggs to CO2 concentrations of 4,000 ppm and 10,000 ppm respectively. During the incubation period the oxygen concentration in the control incubator was always above 20%, whereas in the 4,000 ppm and 10,000 ppm CO2 controlled incubators, the oxygen level was typically above 19%.
(§2) Once the chicks hatched, approximately 150 of the male chicks from each batch were taken to grow cages and they began to be fed water and feed. From this point onwards, there was no difference in the treatment of the birds. 28 days after hatching the chickens from each batch were weighed and then stunned. Then the birds were measured for Woody Breast scores by manual palpitation by a trained panel of experts under single-blinded conditions. Each breast was given a score of either 0, 1, 2 or 3. Score 0 means no WB was detected. Score 3 meant very high levels of WB detected and scores 1 and 2 meant intermediate levels of WB were detected.
(§3) 600 fertilized eggs from a commonly used commercial chicken strain, Ross 708, that were less than 1 week old since being laid, and laid in the same laying facility by layers (chickens) of the same age, were split equally into batches of 300 each. One batch, referred to as control batch, was incubated for 18 days in an atmosphere in which no additional CO2 was injected into this atmosphere from any source outside the egg. For this batch, the CO2 concentration inside the incubator varied between ambient atmospheric (i.e. about 409 ppm) and as high as 1,500 ppm (resulting from CO2 generation by the egg). […]

[3] = tested on: Ross 708 chickens (Woody Breast); test: Woody Breast scores by manual palpation in chickens hatched from eggs incubated under controlled CO2; type: in vivo, chicken
Description: as §1, §2, §3

[4] = tested on: fertilized Ross 708 chicken eggs; test: Percent of fertile eggs hatched at end of 21 days of incubation under controlled CO2; type: in vivo
Description: as §1
600 fertilized eggs from a commonly used commercial chicken strain, Ross 708, that were less than 1 week old since being laid, and laid in the same laying facility by layers (chickens) of the same age, were split equally into batches of 300 each. One batch, referred to as control batch, was incubated for 18 days in an atmosphere in which no additional CO2 was injected into this atmosphere from any source outside the egg. […]

[5] = Regimen 1, constant 1% CO2 for 18 days

O=C=O [CO2, carbon dioxide]
more hatched birds surviving to end of 28 days compared to control [1, 5]: Approximately 4%
percentage of birds that survived compared to control ([1]; Regimen 2, 1% CO2 ramp up): no statistical difference
percentage of birds that survived compared to control ([1]; Regimen 3, 0.75% CO2 on-off): no statistical difference
average final weight at 28 days, higher than control by [2, 5]: approximately 5%
increase of average weight just after hatch vs control [2, 5]: approximately 5%
average weight at hatch, lower than control by ([2]; Regimen 2, 1% CO2 ramp up): approximately 6.5%
weight at 28 days compared to control birds ([2]; Regimen 2, 1% CO2 ramp up): slightly heavier
average weight at hatch, lower than control by ([2]; Regimen 3, 0.75% CO2 on-off): approximately 1.5%
weight at 28 days, heavier than control birds by ([2]; Regimen 3, 0.75% CO2 on-off): 11%
% of birds scoring 1 (Woody Breast score) ([3]; Regimen 1, constant 10,000 ppm (1%) CO2 for 18 days, 28 days after hatching, control 24%): 15%
incidence of WB compared to control birds ([3]; Regimen 1, constant 10,000 ppm (1%) CO2 in incubator for 18 days, scored 28 days after hatching): significantly reduced
% of birds scoring 1 (Woody Breast score) ([3]; Regimen 2, 1% CO2 ramp up, 28 days after hatching, control 13%): 8%
incidence of WB compared to control birds ([3]; Regimen 2, CO2 ramp up in equal daily steps to 10,000 ppm (1%) on day 18, 28 days after hatching): significantly reduced
% of birds scoring 2 (Woody Breast score) ([3]; Regimen 3, 0.75% CO2 on-off, 28 days after hatching, control 5%): 1%
% of birds scoring 1 (Woody Breast score) ([3]; Regimen 3, 0.75% CO2 on-off, 28 days after hatching, control 23%): 17%
% of birds scoring 0 (Woody Breast score) ([3]; Regimen 3, 0.75% CO2 on-off, 28 days after hatching, control 73%): 82%
incidence of WB compared to control birds ([3]; Regimen 3, 7,500 ppm (0.75%) CO2 on-off on alternate 24 h periods till day 18, 28 days after hatching): significantly reduced
WB scores compared to control ([3]; constant 4,000 ppm (0.4%) CO2 for 18 days, 28 days after hatching): higher
% of birds scoring 2 (Woody Breast score) ([3]; constant 4,000 ppm (0.4%) CO2 for 18 days, 28 days after hatching, control 1%): 9%
percent of fertile eggs that hatched at the end of 21 days of incubation ([4]; Regimen 1, constant 10,000 ppm (1%) CO2 for 18 days, control 88.1%): 93.5%
percent of fertile eggs that hatched at the end of 21 days of incubation ([4]; Regimen 2, 1% CO2 ramp up, control 91%): 94.1%
percent of fertile eggs that hatched at the end of 21 days of incubation ([4]; Regimen 3, 0.75% CO2 on-off, control 88.7%): 96%
percent of fertile eggs that hatched at the end of 21 days of incubation ([4]; constant 4,000 ppm (0.4%) CO2 for 18 days, control 88.1%): 95.6%
